Experimental data taken from ChEMBL document CHEMBL4229504, “Incorporation of histone deacetylase inhibitory activity into the core of tamoxifen - A new hybrid design paradigm” (Bioorg Med Chem, 2018).
The source made the active and inactive calls. The rule behind the calls is not given here.

Key:
Estrogen receptor [1] = target: T1, Estrogen receptor (Homo sapiens, UniProt P03372); assay: Antagonist activity at recombinant human ERalpha expressed in HEK293 cells assessed as inhibition of estradiol-induced YFP-fused SRC1 coactivator recruitment measured after 1 hr in presence of Coelenterazine H by BRET assay; format: cell-based
T1 sequence (P03372 whole entry): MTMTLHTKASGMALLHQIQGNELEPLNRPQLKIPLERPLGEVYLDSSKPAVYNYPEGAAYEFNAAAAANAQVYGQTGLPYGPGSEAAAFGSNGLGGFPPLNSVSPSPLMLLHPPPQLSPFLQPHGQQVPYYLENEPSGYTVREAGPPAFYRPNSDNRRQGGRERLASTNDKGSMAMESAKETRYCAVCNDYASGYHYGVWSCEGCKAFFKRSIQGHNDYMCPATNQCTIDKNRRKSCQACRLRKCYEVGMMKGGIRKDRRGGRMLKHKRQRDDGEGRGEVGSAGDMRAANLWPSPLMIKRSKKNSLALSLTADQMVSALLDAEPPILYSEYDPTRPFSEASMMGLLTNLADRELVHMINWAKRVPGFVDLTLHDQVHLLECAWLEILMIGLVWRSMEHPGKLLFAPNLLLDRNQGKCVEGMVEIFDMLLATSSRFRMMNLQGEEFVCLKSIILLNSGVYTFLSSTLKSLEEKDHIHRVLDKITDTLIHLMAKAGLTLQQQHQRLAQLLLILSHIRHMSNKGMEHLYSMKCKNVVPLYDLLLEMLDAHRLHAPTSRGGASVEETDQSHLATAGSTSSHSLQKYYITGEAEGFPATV

Estrogen receptor [2] = target: T1, Estrogen receptor; assay: Partial agonist activity at recombinant human ERalpha expressed in HEK293 cells assessed as YFP-fused SRC1 coactivator recruitment measured after 1 hr in presence of Coelenterazine H by BRET assay; format: cell-based; details: hek293, 1 h
[3] = target: T2, Protein deacetylase HDAC6 (Homo sapiens, UniProt Q9UBN7); assay: Inhibition of full length recombinant human N-terminal GST-tagged HDAC6 expressed in Sf9 cells using Ac-Leu-Gly-Lys(Ac)-AMC as substrate measured after 30 mins by fluorescence assay
T2 sequence (Q9UBN7 whole entry): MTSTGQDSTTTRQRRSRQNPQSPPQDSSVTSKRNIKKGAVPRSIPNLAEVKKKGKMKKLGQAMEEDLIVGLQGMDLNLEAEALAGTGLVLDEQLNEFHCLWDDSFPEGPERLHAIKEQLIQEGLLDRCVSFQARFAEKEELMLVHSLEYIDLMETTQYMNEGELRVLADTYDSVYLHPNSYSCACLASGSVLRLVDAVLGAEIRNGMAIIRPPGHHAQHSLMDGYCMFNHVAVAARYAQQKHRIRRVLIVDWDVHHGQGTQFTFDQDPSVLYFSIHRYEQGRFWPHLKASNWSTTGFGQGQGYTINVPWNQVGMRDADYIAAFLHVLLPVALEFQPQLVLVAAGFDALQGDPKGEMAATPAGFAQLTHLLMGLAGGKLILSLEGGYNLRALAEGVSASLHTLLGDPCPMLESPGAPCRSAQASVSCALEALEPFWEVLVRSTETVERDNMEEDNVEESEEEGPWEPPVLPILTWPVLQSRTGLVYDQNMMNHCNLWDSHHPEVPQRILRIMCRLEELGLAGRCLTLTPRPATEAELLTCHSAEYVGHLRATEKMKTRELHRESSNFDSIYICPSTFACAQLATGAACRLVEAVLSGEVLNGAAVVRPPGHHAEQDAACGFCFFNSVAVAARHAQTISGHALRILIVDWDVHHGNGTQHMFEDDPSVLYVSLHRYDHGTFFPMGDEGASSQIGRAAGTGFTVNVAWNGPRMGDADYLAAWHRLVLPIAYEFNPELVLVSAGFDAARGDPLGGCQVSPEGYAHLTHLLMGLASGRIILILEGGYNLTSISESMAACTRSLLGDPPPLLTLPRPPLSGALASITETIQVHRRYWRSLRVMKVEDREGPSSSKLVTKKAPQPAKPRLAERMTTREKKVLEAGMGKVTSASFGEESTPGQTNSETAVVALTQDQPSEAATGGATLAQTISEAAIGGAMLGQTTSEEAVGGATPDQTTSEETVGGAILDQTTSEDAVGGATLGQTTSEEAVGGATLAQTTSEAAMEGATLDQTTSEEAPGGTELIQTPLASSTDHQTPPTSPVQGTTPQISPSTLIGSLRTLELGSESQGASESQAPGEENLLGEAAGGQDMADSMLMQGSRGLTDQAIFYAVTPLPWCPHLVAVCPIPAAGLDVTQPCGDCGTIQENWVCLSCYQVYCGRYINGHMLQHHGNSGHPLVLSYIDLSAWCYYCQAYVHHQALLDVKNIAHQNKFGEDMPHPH

[4] = target: Histone deacetylase 3/Nuclear receptor corepressor 2 (HDAC3/NCoR2) (Homo sapiens, UniProt O15379); assay: Inhibition of human full length C-terminal His-tagged HDAC3/N-terminal GST-tagged human NCOR2 (395 to 489 residues) expressed in baculovirus expression system using Ac-Leu-Gly-Lys(Ac)-AMC as substrate measured after 30 mins by fluorescence assay
MCF7 [5] = assay: Cytotoxicity against ER positive human MCF7 cells treated every 2 days for 4 days measured post last dose by CellTiter-Glo luminescence assay; format: functional, cell-based
MCF7 [6] = assay: Cytotoxicity against ER positive human MCF7 cells treated every 2 days for 4 days measured after 7 days by CellTiter-Glo luminescence assay; format: functional, cell-based
MDA-MB-231 [7] = assay: Cytotoxicity against ER negative human MDA-MB-231 cells treated every 2 days for 4 days measured post last dose by CellTiter-Glo luminescence assay; format: functional, cell-based
MDA-MB-231 [8] = assay: Cytotoxicity against ER negative human MDA-MB-231 cells treated every 2 days for 4 days measured after 7 days by CellTiter-Glo luminescence assay; format: functional, cell-based
MCF-10A [9] = assay: Cytotoxicity against ER negative human MCF10A cells treated every 2 days for 4 days measured post last dose by CellTiter-Glo luminescence assay; format: functional, cell-based
MCF-10A [10] = assay: Cytotoxicity against ER negative human MCF10A cells treated every 2 days for 4 days measured after 7 days by CellTiter-Glo luminescence assay; format: functional, cell-based
[11] = target: T3, Histone deacetylase 6/3 (Homo sapiens) (UniProt O15379+Q9UBN7); assay: Inhibition of HDAC6/HDAC3 in human MCF7 cells assessed as induction of SREBF1 mRNA expression at 5 uM after 24 hrs by QIAzol reagent based RT-qPCR analysis; format: cell-based
[12] = target: T3, Histone deacetylase 6/3 (Homo sapiens); assay: Inhibition of HDAC6/HDAC3 in human MCF7 cells assessed as induction of CTGF mRNA expression at 5 uM after 24 hrs by QIAzol reagent based RT-qPCR analysis; format: cell-based
[13] = target: T3, Histone deacetylase 6/3 (Homo sapiens); assay: Inhibition of HDAC6/HDAC3 in human MCF7 cells assessed as induction of CDKN1A mRNA expression at 5 uM after 24 hrs by QIAzol reagent based RT-qPCR analysis; format: cell-based
[14] = target: T4, Estrogen receptor (Homo sapiens) (UniProt P03372); assay: Antagonist activity at recombinant human ERalpha expressed in HEK293 cells assessed as inhibition of estradiol-induced YFP-fused SRC1 coactivator recruitment at higher concentration measured after 1 hr in presence of Coelenterazine H by BRET assay; format: cell-based
T4 sequence (whole entry): T1 sequence (P03372 whole entry)

[15] = target: Histone deacetylase 3 (Homo sapiens) (UniProt O15379); assay: Inhibition of HDAC3 in human MCF7 cells assessed as increase in acetylated histone H4 expression at 0.1 to 9 uM after 8 hrs by Western blot analysis; format: cell-based
[16] = target: T5, Protein deacetylase HDAC6 (Homo sapiens) (UniProt Q9UBN7); assay: Inhibition of HDAC6 in human MCF7 cells assessed as increase in acetylated alpha-tubulin expression at 0.1 to 9 uM after 8 hrs by Western blot analysis; format: cell-based
T5 sequence (whole entry): T2 sequence (Q9UBN7 whole entry)

Chain of Histone deacetylase 3/Nuclear receptor corepressor 2 (HDAC3/NCoR2) (O15379 whole entry, the tested form may be a part): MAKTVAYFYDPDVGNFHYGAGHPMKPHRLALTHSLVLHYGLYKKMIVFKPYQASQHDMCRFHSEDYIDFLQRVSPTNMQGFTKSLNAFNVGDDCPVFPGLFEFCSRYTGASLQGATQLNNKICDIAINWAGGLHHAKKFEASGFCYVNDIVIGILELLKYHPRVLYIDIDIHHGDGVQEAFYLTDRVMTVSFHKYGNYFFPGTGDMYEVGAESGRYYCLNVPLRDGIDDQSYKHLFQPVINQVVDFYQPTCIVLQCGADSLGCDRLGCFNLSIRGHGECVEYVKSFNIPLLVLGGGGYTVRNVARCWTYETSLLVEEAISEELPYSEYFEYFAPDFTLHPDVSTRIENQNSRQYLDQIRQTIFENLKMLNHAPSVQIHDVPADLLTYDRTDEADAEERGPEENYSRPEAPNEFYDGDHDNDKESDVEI
Chain of Histone deacetylase 3/Nuclear receptor corepressor 2 (HDAC3/NCoR2) (Q9Y618 whole entry, further chain, the tested form may be a part): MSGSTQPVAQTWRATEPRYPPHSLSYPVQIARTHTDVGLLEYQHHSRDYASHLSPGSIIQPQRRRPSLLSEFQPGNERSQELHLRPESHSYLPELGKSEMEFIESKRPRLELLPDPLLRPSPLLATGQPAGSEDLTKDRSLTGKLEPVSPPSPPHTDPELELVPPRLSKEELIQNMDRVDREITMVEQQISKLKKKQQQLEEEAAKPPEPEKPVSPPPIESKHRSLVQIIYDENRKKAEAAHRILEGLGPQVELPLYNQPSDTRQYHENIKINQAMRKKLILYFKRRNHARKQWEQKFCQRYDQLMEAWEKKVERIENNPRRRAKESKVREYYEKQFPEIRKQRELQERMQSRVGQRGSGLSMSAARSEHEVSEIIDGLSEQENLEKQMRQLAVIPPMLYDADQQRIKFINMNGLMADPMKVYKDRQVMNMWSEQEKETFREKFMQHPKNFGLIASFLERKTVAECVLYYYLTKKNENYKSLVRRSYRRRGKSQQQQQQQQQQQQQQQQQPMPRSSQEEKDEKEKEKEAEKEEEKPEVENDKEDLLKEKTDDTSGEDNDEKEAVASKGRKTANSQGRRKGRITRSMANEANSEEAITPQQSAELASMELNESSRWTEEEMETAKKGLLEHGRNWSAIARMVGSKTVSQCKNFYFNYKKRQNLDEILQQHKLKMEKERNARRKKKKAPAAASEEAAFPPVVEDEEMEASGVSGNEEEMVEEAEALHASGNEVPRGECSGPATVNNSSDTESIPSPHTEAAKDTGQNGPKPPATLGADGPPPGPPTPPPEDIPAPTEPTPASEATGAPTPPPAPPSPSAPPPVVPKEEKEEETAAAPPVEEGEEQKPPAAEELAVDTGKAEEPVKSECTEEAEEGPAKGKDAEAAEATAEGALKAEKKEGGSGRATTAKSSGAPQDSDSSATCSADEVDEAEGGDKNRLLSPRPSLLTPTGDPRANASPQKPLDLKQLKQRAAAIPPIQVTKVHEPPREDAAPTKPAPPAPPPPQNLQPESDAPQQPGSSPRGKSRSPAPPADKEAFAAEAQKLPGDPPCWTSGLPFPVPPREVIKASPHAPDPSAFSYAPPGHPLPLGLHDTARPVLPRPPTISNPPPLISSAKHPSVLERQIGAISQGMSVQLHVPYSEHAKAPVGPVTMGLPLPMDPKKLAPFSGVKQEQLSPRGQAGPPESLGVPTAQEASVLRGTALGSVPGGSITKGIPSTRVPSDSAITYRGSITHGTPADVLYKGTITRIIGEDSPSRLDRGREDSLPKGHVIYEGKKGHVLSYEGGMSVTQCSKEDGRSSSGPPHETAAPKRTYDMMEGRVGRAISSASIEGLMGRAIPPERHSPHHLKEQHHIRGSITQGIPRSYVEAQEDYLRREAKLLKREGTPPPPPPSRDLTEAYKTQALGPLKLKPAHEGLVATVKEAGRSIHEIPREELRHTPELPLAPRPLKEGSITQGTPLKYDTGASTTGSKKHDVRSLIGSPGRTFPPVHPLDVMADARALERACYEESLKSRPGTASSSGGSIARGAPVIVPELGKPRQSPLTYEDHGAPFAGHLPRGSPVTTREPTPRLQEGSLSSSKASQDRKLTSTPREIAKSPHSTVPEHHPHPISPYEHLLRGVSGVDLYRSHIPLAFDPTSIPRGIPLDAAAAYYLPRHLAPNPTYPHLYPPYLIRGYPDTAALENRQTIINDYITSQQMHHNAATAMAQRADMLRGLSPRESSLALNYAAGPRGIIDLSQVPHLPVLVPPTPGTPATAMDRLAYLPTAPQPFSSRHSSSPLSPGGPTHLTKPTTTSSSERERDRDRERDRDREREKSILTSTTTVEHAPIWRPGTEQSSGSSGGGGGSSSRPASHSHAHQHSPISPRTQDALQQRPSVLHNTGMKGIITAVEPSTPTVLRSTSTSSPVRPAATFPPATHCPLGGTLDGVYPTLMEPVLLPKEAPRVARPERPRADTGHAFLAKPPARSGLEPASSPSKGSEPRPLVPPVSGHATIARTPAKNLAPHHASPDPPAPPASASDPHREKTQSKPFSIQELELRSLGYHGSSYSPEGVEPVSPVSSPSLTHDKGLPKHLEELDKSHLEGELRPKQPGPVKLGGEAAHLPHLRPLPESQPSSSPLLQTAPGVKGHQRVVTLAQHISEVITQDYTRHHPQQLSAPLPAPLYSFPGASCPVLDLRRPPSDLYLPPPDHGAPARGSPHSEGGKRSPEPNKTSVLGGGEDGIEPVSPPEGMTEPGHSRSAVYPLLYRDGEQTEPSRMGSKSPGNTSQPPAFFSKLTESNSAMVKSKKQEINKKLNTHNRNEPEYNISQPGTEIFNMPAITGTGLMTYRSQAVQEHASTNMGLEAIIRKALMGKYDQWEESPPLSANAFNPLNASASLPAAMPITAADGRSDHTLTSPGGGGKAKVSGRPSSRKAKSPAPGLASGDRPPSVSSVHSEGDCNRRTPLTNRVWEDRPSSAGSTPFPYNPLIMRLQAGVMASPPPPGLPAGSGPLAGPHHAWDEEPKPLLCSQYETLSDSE
T3 sequence (O15379 whole entry, looked up, one chain of several): as the sequence (O15379 whole entry, the tested form may be a part) above
Chain of Histone deacetylase 3 (Homo sapiens) (O15379 whole entry): as the sequence (O15379 whole entry, the tested form may be a part) above

Q: Which results are given for `CC/C(=C(\c1ccc(O)cc1)c1ccc(OCCN(C)C)cc1)c1ccc(CCCCC(=O)NO)cc1`?
A: IC50 (Estrogen receptor [1]): 820 nM; Activity (Estrogen receptor [2]): Not Active; IC50 [3]: 300 nM; IC50 [4]: 734 nM; IC50 (MCF7 [5]): 1300 nM; IC50 (MCF7 [6]): 790 nM; IC50 (MDA-MB-231 [7]): 1270 nM; IC50 (MDA-MB-231 [8]): 1100 nM; IC50 (MCF-10A [9]): 2170 nM; IC50 (MCF-10A [10]): 1830 nM; inhibition [11]: Active; inhibition [12]: Active; inhibition [13]: Active

Q: For `CC/C(=C(\c1ccc(O)cc1)c1ccc(OCCN(C)C)cc1)c1ccc(/C=C/C(=O)NO)cc1`, which Activity (Estrogen receptor [2]) is on record?
A: Not Active

Q: And the IC50 [3]?
A: 519 nM

Q: And the IC50 [4]?
A: 6720 nM

Q: And the IC50 (MCF7 [5])?
A: 4800 nM

Q: What about the IC50 (MCF7 [6]) of the same molecule?
A: 2700 nM

Q: What about the inhibition [14] of the same molecule?
A: Active

Q: How did the IC50 (Estrogen receptor [1]) turn out when `CC/C(=C(\c1ccc(O)cc1)c1ccc(OCCN(C)C)cc1)c1ccc(C(=O)NO)cc1` was run?
A: 1120 nM

Q: What about the Activity (Estrogen receptor [2]) of the same molecule?
A: Not Active

Q: What about the IC50 [3] of the same molecule?
A: 71900 nM

Q: `CC/C(=C(\c1ccc(O)cc1)c1ccc(OCCN(C)C)cc1)c1ccc(CCC(=O)NO)cc1` was tested. Which IC50 (Estrogen receptor [1]) did it give?
A: 1940 nM

Q: And the Activity (Estrogen receptor [2])?
A: Not Active

Q: And the IC50 [3]?
A: 484 nM

Q: What about the IC50 [4] of the same molecule?
A: 2010 nM

Q: And the IC50 (MCF7 [5])?
A: 3600 nM

Q: What about the IC50 (MCF7 [6]) of the same molecule?
A: 1800 nM

Q: How did the IC50 (MCF7 [5]) turn out when `CCC(=C(c1ccc(O)cc1)c1ccc(OCCN(C)C)cc1)c1ccccc1` was run?
A: 3900 nM

Q: And the IC50 (MCF7 [6])?
A: 3300 nM

Q: What about the IC50 (MDA-MB-231 [7]) of the same molecule?
A: 3500 nM

Q: What about the IC50 (MDA-MB-231 [8]) of the same molecule?
A: 2500 nM

Q: And the IC50 (MCF-10A [9])?
A: 4000 nM

Q: And the IC50 (MCF-10A [10])?
A: 4000 nM

Q: What about the inhibition [15] of the same molecule?
A: inactive

Q: And the inhibition [16]?
A: inactive

Q: What about the inhibition [11] of the same molecule?
A: inactive

Q: What about the inhibition [12] of the same molecule?
A: inactive

Q: What about the inhibition [13] of the same molecule?
A: inactive

Q: What does the source list for `CC/C(=C(\c1ccc(O)cc1)c1ccc(OCCN(C)C)cc1)c1ccc(OCCCCC(=O)NO)cc1`?
A: IC50 (Estrogen receptor [1]): 800 nM; Activity (Estrogen receptor [2]): Not Active; IC50 [3]: 1780 nM; IC50 [4]: 2100 nM; IC50 (MCF7 [5]): 2900 nM; IC50 (MCF7 [6]): 1200 nM
